This data set can be described thus: Solubility of eosin in oil and organic solvent. It is filed as physicochemical. How it is done:
A water/oil microemulsion was prepared as follows: 1.0 ml isopropyl myristate was added to 1.4 ml of a surfactant mixture consisting of polyoxyethylene sorbitan monooleate (Tween 80): sorbitan monolaurate (Span 20): ethanol in a 45:30:25 volume ratio. Next, 0.6 ml of a 6% (w/v) eosin Y solution was added and the mixture briefly vortexed until an optically clear, single phase solution resulted (it was confirmed that eosin was not soluble in the oil or the ethyl acetate prior to formulation of the microemulsion nanocapsules).
A water/oil microemulsion was prepared by adding 0.5 ml hexadecane to a surfactant mixture consisting of polyoxyethylene sorbitan monooleate (Tween 80): sorbitan monolaurate (Span 20): ethanol in a 45:30:25 volume ratio. To that mixture, 0.35 ml of a 6% (w/v) eosin Y solution was added. […] Nanoparticles were formed and the eosin encapsulation was measured as described in Example 1. The amount of eosin incorporated into nanocapsules was 98% of the initial quantity added.

With `O=C1OC2(c3ccccc31)c1cc(Br)c(O)c(Br)c1Oc1c2cc(Br)c(O)c1Br` [eosin, eosin Y], the “solubility of eosin in hexadecane” value (conditions of Example 2) is reported as “not to be soluble”. Further, the “solubility of eosin in the oil or the ethyl acetate” value (oil = isopropyl myristate, prior to formulation of the microemulsion nanocapsules) is “not soluble”.

The record behind these values is US6720008B2, “Composition and method for the encapsulation of water-soluble molecules into nanoparticles” (PR Pharmaceuticals, Inc., priority 2002, dated 2004).
